The target of this experiment is T1, CXCR7 (Homo sapiens, UniProt P25106).
T1 construct: host or cells: CHO-K1 (PathHunter CHO-K1 CXCR7 b-arrestin cell line, stably transfected)
The experiment can be described thus: PathHunter CHO-K1 CXCR7 b-arrestin recruitment assay (CXCR7 agonistic activity). It is filed as cell-based. To be noted: PathHunter CHO-K1 CXCR7 b-arrestin cell line. Put shortly:
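Stable CHO-K1 line with C-terminally ProLink-tagged CXCR7 and β-arrestin 2–EA fusion; β-arrestin recruitment restores β-gal activity, read by chemiluminescence after 1 h RT detection. Cells seeded 24 h, starved in OPTIMEM 3–4 h, exposed to compounds 90 min at 37 °C in HBSS/HEPES/BSA. Geometric-mean EC50 from repeated measurements.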
(Activated receptors often draw arrestin, which recruitment assays turn into a signal.)

T1 sequence (P25106 whole entry): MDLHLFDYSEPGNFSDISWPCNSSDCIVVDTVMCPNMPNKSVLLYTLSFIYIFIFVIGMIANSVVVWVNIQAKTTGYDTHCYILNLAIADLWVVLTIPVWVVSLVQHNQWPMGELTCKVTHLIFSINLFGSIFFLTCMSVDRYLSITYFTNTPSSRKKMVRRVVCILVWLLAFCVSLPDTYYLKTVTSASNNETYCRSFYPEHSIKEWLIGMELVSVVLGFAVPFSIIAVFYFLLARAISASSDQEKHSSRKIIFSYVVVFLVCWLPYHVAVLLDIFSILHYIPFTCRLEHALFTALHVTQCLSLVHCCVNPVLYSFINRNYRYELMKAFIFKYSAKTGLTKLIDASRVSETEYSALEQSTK
T1 sequence (P32121 whole entry partner): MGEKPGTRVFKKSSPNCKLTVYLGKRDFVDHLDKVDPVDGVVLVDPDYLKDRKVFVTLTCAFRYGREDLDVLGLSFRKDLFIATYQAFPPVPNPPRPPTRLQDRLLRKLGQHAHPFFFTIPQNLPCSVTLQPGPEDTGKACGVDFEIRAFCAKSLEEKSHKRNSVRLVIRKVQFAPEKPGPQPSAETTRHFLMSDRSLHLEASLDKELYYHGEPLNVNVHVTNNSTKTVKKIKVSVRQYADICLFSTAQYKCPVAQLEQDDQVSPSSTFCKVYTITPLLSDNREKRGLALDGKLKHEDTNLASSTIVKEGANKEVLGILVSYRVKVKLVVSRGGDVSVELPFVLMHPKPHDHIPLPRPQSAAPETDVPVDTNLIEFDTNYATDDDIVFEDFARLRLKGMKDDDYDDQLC

For orientation: EC50 means the concentration needed to bring the measured effect to its halfway point. The compound `CCC(=O)N1CCc2c(cccc2NCC(=O)N(CCN(C)C)Cc2cccc(C(F)(F)F)c2)C1` [Example 33, N-(2-Dimethylamino-ethyl)-2-(2-propionyl-1,2,3,4-tetrahydro-isoquinolin-5-ylamino)-N-(3-trifluoromethyl-benzyl)-acetamide] displayed an EC50 of 16 nM. In the case of `CCC(=O)N1CCc2c(cccc2NCC(=O)N(CCCN(C)C)Cc2ccccc2)C1` [Example 13, N-Benzyl-N-(3-dimethylamino-propyl)-2-(2-propionyl-1,2,3,4-tetrahydro-isoquinolin-5-ylamino)-acetamide], it took 37 nM to reach a half-maximal effect (EC50).

Compound `CN1CCC(N(Cc2ccccc2C(F)(F)F)C(=O)/C=C/c2cccc3c2CCN(C(=O)OC(C)(C)C)C3)CC1` [Example 96, 5-{(E)-2-[(1-Methyl-piperidin-4-yl)-(2-trifluoromethyl-benzyl)-carbamoyl]-vinyl}-3,4-dihydro-1H-isoquinoline-2-carboxylic acid tert-butyl ester] registered an EC50 of 249 nM. Compound `CNCCN(Cc1ccccc1C(F)(F)F)C(=O)CNc1cccc2c1CCN(CC1CC1)C2` [Example 179, 2-(2-Cyclopropylmethyl-1,2,3,4-tetrahydro-isoquinolin-5-ylamino)-N-(2-methylamino-ethyl)-N-(2-trifluoromethyl-benzyl)-acetamide] showed an EC50 of 3 nM. In the case of `CC(Oc1cccc2c1CCN(CC1CC1)C2)C(=O)N(CCN(C)C)Cc1ccccc1C(F)(F)F` (racemic) [Example 350, rac-2-(2-Cyclopropylmethyl-1,2,3,4-tetrahydro-isoquinolin-5-yloxy)-N-(2-dimethylamino-ethyl)-N-(2-trifluoromethyl-benzyl)-propionamide], the EC50 is 32 nM. Take `CN(C)CCN(Cc1ncccc1Cl)C(=O)CNc1cccc2c1CN(CC1CC1)CC2` [compound 485, N-(3-Chloro-pyridin-2-ylmethyl)-2-(2-cyclopropylmethyl-1,2,3,4-tetrahydro-isoquinolin-8-ylamino)-N-(2-dimethylamino-ethyl)-acetamide]: the EC50 was 8 nM.

The compound `Cc1cc(CN(CCN(C)C)C(=O)CNc2cccc3c2CCN(CC2CC2)C3)no1` [Example 269, 2-(2-Cyclopropylmethyl-1,2,3,4-tetrahydro-isoquinolin-5-ylamino)-N-(2-dimethylamino-ethyl)-N-(5-methyl-isoxazol-3-ylmethyl)-acetamide] gave an EC50 of 54 nM. Against the preceding compound, the EC50 is about 6.8-fold higher. Compound `CN(C)CCN(Cc1ncccc1C(F)(F)F)C(=O)CNc1ccc(F)c2c1CCN(CC1CC1)C2` [Example 289, 2-(2-Cyclopropylmethyl-8-fluoro-1,2,3,4-tetrahydro-isoquinolin-5-ylamino)-N-(2-dimethylamino-ethyl)-N-(3-trifluoromethyl-pyridin-2-ylmethyl)-acetamide] gave an EC50 of 16 nM. Compound `CCN1CCc2cccc(NCC(=O)N(CCN(C)C)Cc3ccccc3F)c2C1` [compound 491, N-(2-Dimethylamino-ethyl)-2-(2-ethyl-1,2,3,4-tetrahydro-isoquinolin-8-ylamino)-N-(2-fluoro-benzyl)-acetamide] registered a concentration for a half-maximal effect (EC50) of 21 nM. Next, `CCN1CCc2cccc(NCC(=O)N(CCNC)Cc3ccccc3)c2C1` [compound 443]: 147 nM.

Take `CN(C)CCN(Cc1ccccc1C(F)(F)F)C(=O)CNc1cccc2c1CCN(C1COC1)C2` [Example 353, N-(2-Dimethylamino-ethyl)-2-(2-oxetan-3-yl-1,2,3,4-tetrahydro-isoquinolin-5-ylamino)-N-(2-trifluoromethyl-benzyl)-acetamide]: the EC50 was determined as 85 nM.

`CCN1Cc2cccc(NCC(=O)N(CCN(C)C)Cc3ccccc3C(F)(F)F)c2CC1=O` [Example 309, N-(2-Dimethylamino-ethyl)-2-(2-ethyl-3-oxo-1,2,3,4-tetrahydro-isoquinolin-5-ylamino)-N-(2-trifluoromethyl-benzyl)-acetamide] came in with a half-maximal effective concentration (EC50) of 24 nM. This EC50 lies about 3.5-fold lower than the previous one. Consider `CCCCNC(=O)N1CCc2c(cccc2NCC(=O)N(CCNC)Cc2ccccc2C(F)(F)F)C1` [compound 405], for which the EC50 was found to be 257 nM. On to `CCC(=O)N1CCc2cccc(OCC(=O)N(CCN(C)C)Cc3ccccc3)c2C1` [Example 206, N-Benzyl-N-(2-dimethylamino-ethyl)-2-(2-propionyl-1,2,3,4-tetrahydro-isoquinolin-8-yloxy)-acetamide], for which the EC50 worked out at 26 nM. `CCN1CCc2cccc(NCC(=O)N(CCN(C)C)Cc3ccc(C)cn3)c2C1` [compound 527] returned an EC50 of 162 nM.

In the case of `COCCN1CCc2c(/C=C/C(=O)N(CCN3CCC(F)(F)CC3)Cc3ncccc3C(F)(F)F)cccc2C1` [Example 322, (E)-N-[2-(4,4-Difluoro-piperidin-1-yl)-ethyl]-3-[2-(2-methoxy-ethyl)-1,2,3,4-tetrahydro-isoquinolin-5-yl]-N-(3-trifluoromethyl-pyridin-2-ylmethyl)-acrylamide], a half-maximal effect (EC50) was put at 119 nM. This EC50 and that of the compound before are within 1.5-fold of each other. Regarding `COCCN(Cc1ccccc1C(F)(F)F)C(=O)CNc1cccc2c1CCN(CC1CC1)C2` [Example 225, 2-(2-Cyclopropylmethyl-1,2,3,4-tetrahydro-isoquinolin-5-ylamino)-N-(2-methoxy-ethyl)-N-(2-trifluoromethyl-benzyl)-acetamide], the EC50 was determined as 29 nM. With `Cc1cccnc1CN(CCC(C)(C)C)C(=O)CNc1cccc2c1CCN(CC1CC1)C2` [Example 276, 2-(2-Cyclopropylmethyl-1,2,3,4-tetrahydro-isoquinolin-5-ylamino)-N-(3,3-dimethyl-butyl)-N-(3-methyl-pyridin-2-ylmethyl)-acetamide], the midpoint of the response, the EC50, lay at 17 nM. In turn, `CCCOC(=O)N1CCc2c(cccc2NCC(=O)N(CCNC)Cc2ncccc2C(F)(F)F)C1` [compound 423] registered an EC50 of 79 nM. `CN(C)CCN(Cc1ccccc1)C(=O)CNc1cccc2c1CCN(CC(C)(C)C)C2` [compound 116] showed an EC50 of 96 nM. In turn, `COCCN1CCc2c(/C=C/C(=O)N(Cc3ccccc3)C3CCS(=O)(=O)C3)cccc2C1` (stereo not drawn) [Example 316, (E)-N-Benzyl-N-(1,1-dioxo-tetrahydro-1l6-thiophen-3-yl)-3-[2-(2-methoxy-ethyl)-1,2,3,4-tetrahydro-isoquinolin-5-yl]-acrylamide] gave a concentration giving a half-maximal response (EC50) of 370 nM. On to `O=C(CNc1cccc2c1CCN(CC1CC1)C2)N(CCN1CCCC1)Cc1ccc(F)cc1F` [Example 51, 2-(2-Cyclopropylmethyl-1,2,3,4-tetrahydro-isoquinolin-5-ylamino)-N-(2,4-difluoro-benzyl)-N-(2-pyrrolidin-1-yl-ethyl)-acetamide], for which it took 3 nM to reach a half-maximal effect (EC50). This EC50 is about 120-fold lower than that of the compound before. Take `CCN1CCc2c(CCC(=O)N(CCN(C)C)Cc3ccccc3C(F)(F)F)cccc2C1` [compound 157, N-(2-Dimethylamino-ethyl)-3-(2-ethyl-1,2,3,4-tetrahydro-isoquinolin-5-yl)-N-(2-trifluoromethyl-benzyl)-propionamide]: the concentration giving a half-maximal response (EC50) stood at 9 nM. As to `CN(C)CCN(Cc1ccccc1)C(=O)CNc1cccc2c1CN(C)C2` [Example 208, N-Benzyl-N-(2-dimethylamino-ethyl)-2-(2-methyl-2,3-dihydro-1H-isoindol-4-ylamino)-acetamide], a half-maximal response (EC50) required 248 nM. As to `Cc1cccc(CN(C(=O)CNc2cccc3c2CCN(CC2CC2)C3)C2CC2)c1C` [Example 69, N-Cyclopropyl-2-(2-cyclopropylmethyl-1,2,3,4-tetrahydro-isoquinolin-5-ylamino)-N-(2,3-dimethyl-benzyl)-acetamide], the EC50 was found to be 418 nM. Turning to `CNCCN(Cc1ccccc1C(F)(F)F)C(=O)CNc1cccc2c1CN(CC1CC1)CC2` [compound 384, 2-(2-Cyclopropylmethyl-1,2,3,4-tetrahydro-isoquinolin-8-ylamino)-N-(2-methylamino-ethyl)-N-(2-trifluoromethyl-benzyl)-acetamide], the EC50 was 4 nM. The compound `CCN1Cc2c(NCC(=O)N(CCN(C)C)Cc3ccccc3C(F)(F)F)cccc2C(C)(C)C1` [compound 198] returned an EC50 of 388 nM. `CCN1CCc2cccc(OC3(C(=O)N(CCN(C)C)Cc4ccccc4C(F)(F)F)CCC3)c2C1` [compound 549] came in with an EC50 of 257 nM. In the case of `COCCN1CCc2c(CCC(=O)N(CCC(C)(C)C)Cc3ncccc3C)cccc2C1` [Example 338, N-(3,3-Dimethyl-butyl)-3-[2-(2-methoxy-ethyl)-1,2,3,4-tetrahydro-isoquinolin-5-yl]-N-(3-methyl-pyridin-2-ylmethyl)-propionamide], a half-maximal effect (EC50) was put at 279 nM. The compound `CCC(=O)N1CCc2c(cccc2NCC(=O)N(CCN(C)C)Cc2ccc(C(F)(F)F)cc2)C1` [Example 34, N-(2-Dimethylamino-ethyl)-2-(2-propionyl-1,2,3,4-tetrahydro-isoquinolin-5-ylamino)-N-(4-trifluoromethyl-benzyl)-acetamide] yielded an EC50 of 132 nM.

In turn, `CCN1CCc2cccc(NCC(=O)N(CCN3CCOCC3)Cc3ccccc3C(F)(F)F)c2C1` [compound 510] came in with an EC50 of 109 nM. Regarding `CN(C)CCN(Cc1ccccc1C(F)(F)F)C(=O)CNc1cccc2c1CCN(CC1CC1)C2` [Example 76, 2-(2-Cyclopropylmethyl-1,2,3,4-tetrahydro-isoquinolin-5-ylamino)-N-(2-dimethylamino-ethyl)-N-(2-trifluoromethyl-benzyl)-acetamide], the EC50 came to 2 nM. In the case of `CNCCN(Cc1ncccc1C(F)(F)F)C(=O)CNc1cccc2c1CCN(C(=O)NC1CCCCC1)C2` [compound 433] it was 166 nM; in that of `CN(C)CCN(Cc1ccccc1C(F)(F)F)C(=O)CNc1cccc2c1CCN(CC1CCC1)C2` [Example 361, 2-(2-Cyclobutylmethyl-1,2,3,4-tetrahydro-isoquinolin-5-ylamino)-N-(2-dimethylamino-ethyl)-N-(2-trifluoromethyl-benzyl)-acetamide], 6 nM. Take `CCC(=O)N1CCc2cccc(NCC(=O)N(CCN(C)C)Cc3ccccc3)c2C1` [Example 188, N-Benzyl-N-(2-dimethylamino-ethyl)-2-(2-propionyl-1,2,3,4-tetrahydro-isoquinolin-8-ylamino)-acetamide]: the midpoint of the response, the EC50, lay at 71 nM. Regarding `CC(C)CCN(Cc1ccccc1)C(=O)CNc1cccc2c1CCN(C)C2` [compound 132], the EC50 stood at 130 nM.

The record behind these values is patent publication US9920010B2, “CXCR7 receptor modulators” (IDORSIA PHARMACEUTICALS LTD, priority 2013, dated 2018).
